Values of other authors, collected in patent EP4406531A1, “DOSAGE FORM FOR INTRA-ARTICULAR INJECTION […] AN […] IN THE TREATMENT OF CRYSTAL-AND NON-CRYSTAL […] IN[…]” (PK MED, priority 2023, dated 2024).

Settings: literature (Niel et al. 2006)

COc1cc2c(c(OC)c1OC)-c1ccc(OC)c(=O)cc1[C@@H](NC(C)=O)CC2 [colchicine, N-[(7S)-1,2,3,10-tetramethoxy-9-oxo-6,7-dihydro-5H-benzo[a]heptalen-7-yl]acetamide]
lethal dose: 0.8 mg/kg | toxicity limit: 0.1 mg/kg
